molecular target: Cdk4/CyclinD1 (Homo sapiens (Human), UniProt P11802); test: Cdk4 kinase inhibition assay with recombinant Cdk4/CyclinD1, Rb substrate, [33P]-ATP filter plate; type: biochemical; conditions: 25 μM ATP, read-out: Cdk 4 IC50
Protocol: The Cdk4 and Cdk6 inhibitory activity of the compounds is measured with a kinase inhibition assay using recombinant Cdk4/CyclinD1 or Cdk6/CyclinD3 protein complexes. The protein substrate used in the assay is the retinoblastoma protein (Rb). The kinase reactions are carried out in a 96-well filter plate (MSDV N6B50, Millipore). […] The mixture is incubated at room temperature for 1 hour and the proteins precipitated with an equal volume of 20% TCA. The plates are washed with 10% TCA according to the manufacturer's instruction and dried at room temperature. The amount of the phosphorylated Rb is determined with a TopCount (PerkinElmer). The IC50 of a compound is determined by nonlinear regression curve fitting using software program Prism 5 (GraphPad Software).

Sequence of Cdk4/CyclinD1 (P11802 whole entry): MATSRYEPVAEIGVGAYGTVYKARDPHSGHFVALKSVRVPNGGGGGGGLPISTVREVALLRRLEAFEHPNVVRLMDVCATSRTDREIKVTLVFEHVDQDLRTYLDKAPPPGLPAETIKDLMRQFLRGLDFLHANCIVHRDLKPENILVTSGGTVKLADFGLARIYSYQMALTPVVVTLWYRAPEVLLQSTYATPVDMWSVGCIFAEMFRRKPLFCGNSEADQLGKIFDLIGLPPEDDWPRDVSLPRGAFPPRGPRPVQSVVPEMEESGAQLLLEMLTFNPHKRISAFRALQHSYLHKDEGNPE
Sequence of Cdk4/CyclinD1 (P24385 whole entry partner): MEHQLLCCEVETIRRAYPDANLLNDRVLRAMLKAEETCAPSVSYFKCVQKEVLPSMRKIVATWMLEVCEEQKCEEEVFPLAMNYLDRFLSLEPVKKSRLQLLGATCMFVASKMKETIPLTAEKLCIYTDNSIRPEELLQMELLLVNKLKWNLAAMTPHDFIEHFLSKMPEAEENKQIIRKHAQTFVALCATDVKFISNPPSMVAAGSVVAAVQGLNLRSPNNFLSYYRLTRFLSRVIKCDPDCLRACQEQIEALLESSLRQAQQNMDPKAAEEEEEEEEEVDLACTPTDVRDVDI

SMILES | IC50
CC[C@H](C)n1c2cnccc2c2cnc(Nc3ccc(N4CCNCC4)nn3)nc21 [Example 331] | 390 nM
CNC1CCN(c2ccc(Nc3ncc4c5ccncc5n([C@@H](C)CO)c4n3)nn2)CC1 [Example 373] | 45 nM
c1cc2c3cnc(Nc4ccc(N5CCC(N6CCCC6)CC5)cn4)nc3n(C3CCCC3)c2cn1 [Example 76] | 5.9 nM
CN(C)C1CCN(c2ccc(Nc3ncc4c5ccncc5n([C@@H]5CCOC5)c4n3)nn2)CC1 [Example 391] | 184 nM
CC[C@H](C)n1c2cnccc2c2cnc(Nc3ccc(N4CCC(NC)CC4)cn3)nc21 [Example 335] | 1630 nM
c1cc2c3cnc(Nc4ccc(N[C@@H]5CCNC5)nn4)nc3n(C3CCCC3)c2cn1 [Example 91] | 6.1 nM
C[C@H](O)Cn1c2cnccc2c2cnc(Nc3ccc(N4CC[C@@H](O)C4)cn3)nc21 [Example 424] | 72 nM
CCN(CC)C1CCN(c2ccc(Nc3ncc4c5ccnc(F)c5n(C5CCCC5)c4n3)nn2)CC1 [Example 277, 9-Cyclopentyl-N-(6-(4-(diethylamino)-1-piperidinyl)-3-pyridazinyl)-8-fluoro-9H-pyrido[4′,3′:4,5]pyrrolo[2,3-d]pyrimidin-2-amine] | 18 nM
OC[C@H]1CN(c2ccc(Nc3ncc4c5ccncc5n(C5CCCC5)c4n3)nc2)CCN1 [Example 197, ((2R)-4-(6-((9-Cyclopentyl-9H-pyrido[4′,3′:4,5]pyrrolo[2,3-d]pyrimidin-2-yl)amino)-3-pyridinyl)-2-piperazinyl)methanol] | 4.2 nM
CC[C@H](C)n1c2cnccc2c2cnc(Nc3ccc(N4CCN[C@@H](C)C4)cn3)nc21 [Example 329] | 500 nM
c1cc2c3cnc(Nc4ccc(N5CCC(N6CCCC6)CC5)cn4)nc3n(C3CCCC3)c2nn1 [Example 201, 9-cyclopentyl-N-(5-(4-(1-pyrrolidinyl)-1-piperidinyl)-2-pyridinyl)-9H-pyrimido[5′,4′:4,5]pyrrolo[2,3-c]pyridazin-7-amine] | 26 nM
C[C@@H](CO)n1c2cnccc2c2cnc(Nc3ccc(N4CCC(N(C)C)CC4)cn3)nc21 [Example 370] | 161 nM
Fc1nccc2c3cnc(Nc4ccc(OC5CCNCC5)nn4)nc3n(C3CCCC3)c12 [Example 269, 9-Cyclopentyl-8-fluoro-N-(6-(4-piperidinyloxy)-3-pyridazinyl)-9H-pyrido[4′,3′:4,5]pyrrolo[2,3-d]pyrimidin-2-amine] | 35 nM
C[C@H](O)Cn1c2cnccc2c2cnc(Nc3ccc(N4CC[C@@H](O)C4)nn3)nc21 [Example 414] | 2.6 nM
CNC1CCN(c2ccc(Nc3ncc4c5ccncc5n([C@H]5CCC[C@@H]5O)c4n3)nc2)CC1 [Example 400] | 301 nM
CC[C@H](C)n1c2cnccc2c2cnc(Nc3ccc(N4CCN[C@@H](C)C4)nn3)nc21 [Example 333] | 300 nM
CN(C)C1CCN(c2nc(Nc3ncc4c5ccncc5n(C5CCCC5)c4n3)ns2)CC1 [Example 134] | 190 nM
NC1CCN(c2ccc(Nc3ncc4c5cc[nH]c(=O)c5n(C5CCCC5)c4n3)nn2)CC1 [Example 126] | 2 nM
CN(C)C1CCN(c2ccc(Nc3ncc4c5ccncc5n([C@H]5CCC[C@@H]5O)c4n3)nc2)CC1 [Example 399] | 57 nM
C[C@H]1CN(c2ccc(Nc3ncc4c5ccncc5n([C@H]5CCC[C@@H]5O)c4n3)nc2)CCN1 [Example 401] | 170 nM
CN1CCOC2(CCN(c3ccc(Nc4ncc5c6ccncc6n(C6CCCC6)c5n4)nn3)CC2)C1 [Example 251, 9-cyclopentyl-N-(6-(4-methyl-1-oxa-4,9-diazaspiro[5.5]undec-9-yl)-3-pyridazinyl)-9H-pyrido[4′,3′:4,5]pyrrolo[2,3-d]pyrimidin-2-amine] | 3.2 nM
NC1CCCN(c2ccc(Nc3ncc4c5ccncc5n(C5CCCC5)c4n3)nn2)C1 (stereo not drawn) [Example 116] | 2 nM
CC1CN(c2ccc(Nc3ncc4c5cc[nH]c(=O)c5n(C5CCCC5)c4n3)nc2)CC(C)N1 (stereo not drawn) [Example 124] | 17 nM
c1cc2c3cnc(Nc4ccc(NCC5CCCCN5)nn4)nc3n(C3CCCC3)c2cn1 (stereo not drawn) [Example 99] | 4.9 nM
CN(CCO)C1CCN(c2ccc(Nc3ncc4c5ccnc(F)c5n(C5CCCC5)c4n3)nc2)CC1 [Example 195, 2-((1-(6-((9-Cyclopentyl-8-fluoro-9H-pyrido[4′,3′:4,5]pyrrolo[2,3-d]pyrimidin-2-yl)amino)-3-pyridinyl)-4-piperidinyl)(methyl)amino)ethanol] | 13 nM
CCN(CC)C1CCN(c2ccc(Nc3ncc4c5ccnnc5n(C5CCCC5)c4n3)nc2)CC1 [Example 281, 9-Cyclopentyl-N-(5-(4-(diethylamino)-1-piperidinyl)-2-pyridinyl)-9H-pyrimido[5′,4′:4,5]pyrrolo[2,3-c]pyridazin-7-amine] | 11 nM

SMILES | IC50
O=C(CO)N1CCN(c2ccc(Nc3ncc4c5ccncc5n(C5CCCC5)c4n3)nc2)CC1 [Example 151, 2-(4-(6-((9-Cyclopentyl-9H-pyrido[4′,3′:4,5]pyrrolo[2,3-d]pyrimidin-2-yl)amino)-3-pyridinyl)-1-piperazinyl)-2-oxoethanol] | 3 nM
CC1CCN(c2ccc(Nc3ncc4c5ccncc5n(C5CCCC5)c4n3)nn2)C1 (stereo not drawn) [Example 120] | 19 nM
C[C@@H](O)Cn1c2cnccc2c2cnc(Nc3ccc(N4CCNC(C)(C)C4)cn3)nc21 [Example 426] | 115 nM
c1cc2c3cnc(Nc4ccc(N5CCNC6(CCCC6)C5)nn4)nc3n(C3CCCC3)c2cn1 [Example 247, 9-cyclopentyl-N-(6-(6,9-diazaspiro[4.5]dec-9-yl)-3-pyridazinyl)-9H-pyrido[4′,3′:4,5]pyrrolo[2,3-d]pyrimidin-2-amine] | 3.4 nM
c1cc2c3cnc(Nc4ccc(N5CCC6(CC5)COCCN6)nn4)nc3n(C3CCCC3)c2cn1 [Example 249, 9-cyclopentyl-N-(6-(4-oxa-1,9-diazaspiro[5.5]undec-9-yl)-3-pyridazinyl)-9H-pyrido[4′,3″:4,5]pyrrolo[2,3-d]pyrimidin-2-amine] | 4.4 nM
c1cc2c3cnc(Nc4cnc(N5CCOCC5)cn4)nc3n(C3CCCC3)c2cn1 [Example 84] | 22 nM
CC1(C)CCC(n2c3nc(Nc4ccc(N5CCC(N6CCCC6)CC5)cn4)ncc3c3ccnc(O)c32)CC1 [Example 210, 9-(4,4-dimethylcyclohexyl)-2-((5-(4-(1-pyrrolidinyl)-1-piperidinyl)-2-pyridinyl)amino)-9H-pyrido[4′,3′:4,5]pyrrolo[2,3-d]pyrimidin-8-ol] | 6.6 nM
C[C@H]1CN(c2ccc(Nc3ncc4c5cc[nH]c(=O)c5n(C5CCCC5)c4n3)nn2)CCN1 [Example 129] | 16 nM
N[C@H]1CCN(c2cnc(Nc3ncc4c5ccncc5n(C5CCCC5)c4n3)cn2)C1 [Example 89] | 7.6 nM
N[C@@H]1CCN(c2cnc(Nc3ncc4c5ccncc5n(C5CCCC5)c4n3)cn2)C1 [Example 90] | 5.6 nM
c1cc2c3cnc(Nc4nsc(N5CCNCC5)n4)nc3n(C3CCCC3)c2cn1 [Example 132] | 302 nM
CN(CCO)c1ccc(Nc2ncc3c4ccncc4n(C4CCCC4)c3n2)nn1 [Example 291] | 3.9 nM
CC1(C)CN(c2ccc(Nc3ncc4c5ccncc5n(C5CCCC5)c4n3)nn2)CCN1 [Example 10] | 2.2 nM
CC1CN(c2ccc(Nc3ncc4c5ccncc5n(C5CCCC5)c4n3)nn2)CC(C)N1 (stereo not drawn) [Example 113] | 4.2 nM
CN1CCN(c2cnc(Nc3ncc4c5ccncc5n(C5CCCC5)c4n3)cn2)CC1 [Example 78] | 15 nM
O=C(Cc1ccc(Nc2ncc3c4ccncc4n(C4CCCC4)c3n2)nc1)N1CCNCC1 [Example 245, 9-cyclopentyl-N-(5-(2-oxo-2-(1-piperazinyl)ethyl)-2-pyridinyl)-9H-pyrido[4′,3′:4,5]pyrrolo[2,3-d]pyrimidin-2-amine] | 7.4 nM
C[C@H](O)Cn1c2cnccc2c2cnc(Nc3ccc(N4CCNCC4)nn3)nc21 [Example 409] | 281 nM
C[C@H](CO)n1c2cnccc2c2cnc(Nc3ccc(N4CC[C@@H](O)C4)nn3)nc21 [Example 389] | 166 nM
c1cc2c3cnc(Nc4ccc(N5CCC6(CCCN6)CC5)cn4)nc3n(C3CCCC3)c2cn1 [Example 231, 9-cyclopentyl-N-(5-(1,8-diazaspiro[45]dec-8-yl)-2-pyridinyl)-9H-pyrido[4′,3′:4,5]pyrrolo[2,3-d]pyrimidin-2-amine] | 3.3 nM
O=C(c1ccc(Nc2ncc3c4ccnc(F)c4n(C4CCCC4)c3n2)nc1)N1CCNCC1 [Example 222, 9-cyclopentyl-8-fluoro-N-(5-(1-piperazinylcarbonyl)-2-pyridinyl)-9H-pyrido[4′,3′:4,5]pyrrolo[2,3-d]pyrimidin-2-amine] | 6 nM
CNC1CCN(c2ccc(Nc3ncc4c5ccncc5n([C@H]5CCC[C@@H]5O)c4n3)nn2)CC1 [Example 406] | 360 nM
O[C@@H]1CCN(c2ccc(Nc3ncc4c5ccncc5n([C@H]5CCC[C@H]5O)c4n3)nc2)C1 [Example 371] | 123 nM
O=C(O)Cc1ccc(Nc2ncc3c4ccncc4n(C4CCCC4)c3n2)nc1 [Example 241, (6-((9-cyclopentyl-9H-pyrido[4′,3′:4,5]pyrrolo[2,3-d]pyrimidin-2-yl)amino)-3-pyridinyl)acetic acid] | 177 nM
O[C@H]1CCC[C@@H]1n1c2cnccc2c2cnc(Nc3ccc(N4CCNCC4)cn3)nc21 [Example 398] | 330 nM
OCCN1CCN(c2ccc(Nc3ncc4c5ccnc(Cl)c5n(C5CCCC5)c4n3)nc2)CC1 [Example 166, 2-(4-(6-((8-Chloro-9-cyclopentyl-9H-pyrido[4′,3′:4,5]pyrrolo[2,3-d]pyrimidin-2-yl)amino)-3-pyridinyl)-1-piperazinyl)ethanol] | 5.5 nM

— patent publication US8841312B2, “Fused pyridine, pyrimidine and triazine compounds as cell cycle inhibitors” (Amgen Inc., priority 2007, dated 2014)
